{
  "source": "patent US20100286283A1",
  "about": "“MICROTUBULE-DISRUPTNG AGENT AND CANCER CELL PROLIFERATION INHIBITOR CONTAINING THE SAME” (priority 2007, published 2010)",
  "key": {"[1]": {"test_system": "gastric cancer cells (HGC-27 cells, AGS cells, and KATO III cells)", "assay": "Cell viability of gastric cancer cells, Cell Titer 96 cell proliferation assay", "assay_type": "cell-based", "conditions": "0 to 4 μg/ml, 24 hours, HGC-27, AGS", "procedure": "1×10^4 gastric cancer cells (HGC-27 cells, AGS cells, and KATO III cells) were seeded in 96 well-plates, and incubated with 6-shogaol (0 to 4 μg/ml) for 24 hours from the next day. Viability of the cells was evaluated in a coloring method using Cell Titer 96 cell proliferation assay (Promega Co., Madison, Wis.), and an absorbance was measured. In this assay, living cells develop color with a reagent, and as the number of living cells is larger, the absorbance is higher. The cell viability was calculated by (absorbance at each addition concentration of 6-shogaol)/(absorbance at 0 μg/ml). Therefore, the viable cell ratio was 1.0 on the basis of 0 μg/ml. 6-shogaol was purchased from Wako Pure Chemical Industries, Ltd. (Osaka, Japan) (purity of 98% or more). Each gastric cancer cell was available from the cell bank in RIKEN BioResource Center (RIKEN BRC cell bank) or ATCC (American Type Culture Collection)."}, "[2]": {"test_system": "gastric cancer cells (HGC-27 cells)", "assay": "Effect on tumor of gastric cancer cells transplanted to a nude mouse", "assay_type": "in vivo", "conditions": "400 μl at 0 to 200 μg/ml into the abdominal cavity for 8 days; HGC-27 subcutaneous tumor", "procedure": "2.5×10^6 gastric cancer cells (HGC-27 cells) were subcutaneously inoculated into the flank of a nude mouse (7-week-old, purchased from Japan SLC, Inc.). After 3 weeks when the tumors had reached an average volume of approximately 40 mm^3, and then 400 μl of 6-shogaol at 0 to 200 μg/ml was administered into the abdominal cavity for 8 days. The tumor volume was measured before the first administration of 6-shogaol and after one day from the eighth administration. Comparing volumes of the tumor before and after administration of 6-shogaol, its magnification was evaluated as a growth ratio of the tumor."}, "[3]": {"test_system": "HGC-27 cells", "assay": "Influence on cell cycle, BrdU flow cytometry", "assay_type": "cell-based", "conditions": "2 μg/ml, 18 hours", "procedure": "2×10^5 gastric cancer cells (HGC-27 cells) were seeded in 12-well plates and incubated in the presence of 6-shogaol at 2 μg/ml for 18 hours from the next day, and then, further incubated in the presence of 10 μM of BrdU for 2 hours. In order to measure intake of BrdU in nuclei and DNA amounts in the nucleus, the cells were stained using a BrdU flow kit (BD Pharmingen, Inc., San Diego, Calif.). 10000 cells were analyzed with the flow cytometer manufactured by Beckman Coulter, Inc. (Fullerton, Calif.). The cells containing a large amount of DNA and a small amount of BrdU were considered to be in G2-M phase."}, "[4]": {"test_system": "various cancer cells (HGC-27 cells, AGS cells, KATO III cells, Jurkat cells, A549 cells, and SW620 cells)", "assay": "Viability (ED50) of various cancer cells", "assay_type": "cell-based", "conditions": "24 hours culture", "procedure": "(§1) ED50: concentration of 6-shogaol, which decreases the cell viability to 0.5 (50%) as compared with the control.\n(§2) ED50 of 6-shogaol was examined on various cancer cells (HGC-27 cells, AGS cells, KATO III cells, Jurkat cells, A549 cells, and SW620 cells) to evaluate whether or not 6-shogaol was also effective for cancer cells other than gastric cancer cells. The culturing time was set to 24 hours."}, "[5]": {"test_system": "A549 cells", "assay": "Viability (ED50) of A549 cells", "assay_type": "cell-based", "conditions": "24 hours culture", "procedure": "as §1, §2"}, "[6]": {"test_system": "SH groups contained in tubulins", "assay": "Quantification of SH groups of tubulin, Ellman method", "assay_type": "biochemical", "conditions": "tubulins 2 μM, 100 μM of 6-shogaol", "procedure": "SH groups contained in tubulins are converted to 5,5′-dithiobis-nitrobenzoic acid into thionitrobenzoate, and an absorbance of the solution at a wavelength of 412 nm (Ellman reaction) increases. The absorbance (412 nm) was measured to evaluate an influence given to an amount of SH groups.\nAn α,β-unsaturated carbonyl compound having a larger molecular weight reacted with more SH groups in the tubulins, and as a result, the amount of the SH groups was decreased and the absorbance (412 nm) was lowered (FIG. 8)."}, "[7]": {"test_system": "tubulins", "assay": "Tubulin binding experiment, comigration in SDS-PAGE", "conditions": "for influence on comigration of NBD-PZ-CO—CH═CH—(CH2)5—CH3 with tubulins: compound coexisting with the probe", "procedure": "Tubulins and a fluorescence dye, NBD-PZ or NBD-PZ-CO—CH═CH—(CH2)5—CH3 were reacted and electrophoresis (SDS-PAGE) was then performed. Binding with the tubulins was determined with comigration (fluorescence derived from NBD-PZ was detected with tubulins)."}, "[8]": {"test_system": "HGC-27 cells", "assay": "Immunostaining of actin and tubulins in gastric cancer cells", "assay_type": "cell-based", "conditions": "40 μM, 6 hours", "procedure": "Gastric cancer cells (HGC-27 cells) were incubated with 6-shogaol at 2 μg/ml for 6 hours and then fixed, and actin was fluorescent-stained with Alexa Fluor phalloidin (Molecular Probes Inc., Eugene, Oreg.), and tubulins were fluorescent-stained with an anti-tubulin β antibody (Lab Vision Co., Fremont, Calif.) and Alexa Fluor 488 labeled second antibody (Molecular Probes, Inc.).\nGastric cancer cells (HGC-27 cells) were incubated with CH3—CO—CH═CH—(CH2)4—CH3, CH3—CO—(CH2)6—CH3 or CH3—CH2—CH═CH—(CH2)4—CH3 (40 μM) for 6 hours and then fixed, and tubulins were fluorescent-stained with anti-tubulin β antibody (Lab Vision Co., Fremont, Calif.) and Alexa Fluor 488 labeling second antibody (Molecular Probes, Inc.)."}, "[9]": {"test_system": "tubulins", "assay": "Tubulin polymerization experiment, absorbance at 340 nm", "assay_type": "biochemical", "conditions": "20 μM tubulins", "procedure": "Polymerization of 20 μM of tubulins was evaluated by measuring an absorbance at a wavelength of 340 nm.\nAlong with gradually polymerizing tubulins in a polymerization solution (80 mM PIPES, pH 6.9, 2 mM MgCl2, 0.5 mM EGTA, 5% glycerol and 1 mM GTP), an absorbance of the solution at a wavelength of 340 nm increases. The absorbance (340 nm) was measured in every 5 minutes to thus evaluate an influence given to the polymerization."}, "[10]": {"test_system": "HGC-27 cells", "assay": "Viable cell ratio of HGC-27 cells, CellTiter96 cell proliferation assay", "assay_type": "cell-based", "conditions": "0 to 40 μM, 24 hours", "procedure": "1×10^4 gastric cancer cells (HGC-27 cells) were seeded in 96-well plates, and incubated with CH3—CO—CH═CH—(CH2)4—CH3, CH3—CO—(CH2)6—CH3 or CH3—CH2—CH═CH—(CH2)4—CH3 (0 to 40 μM) for 24 hours from the next day. Cell viability was evaluated in a coloring method using CellTiter96 cell proliferation assay (Promega Co., Madison, Wis.), and an absorbance was measured. In this assay, living cells develop color with a reagent, and as the number of living cells is larger, the absorbance is higher. The viable cell ratio was calculated by (absorbance at each addition concentration)/(absorbance at 0 μM). Therefore, the viable cell ratio was 1.0 on the basis of 0 μM."}},
  "data": [
    {"smiles": "CCCCC/C=C/C(=O)CCc1ccc(O)c(OC)c1", "note": "[6-shogaol]", "values": [
      {"measurement": "cell viability", "setting": "[1]", "value": "decreased the cell viability"},
      {"measurement": "growth ratio of tumor", "setting": "[2]", "value": "the growth of the tumor was inhibited"},
      {"measurement": "ratio of cells in G2-M stage", "setting": "[3]", "value": "significantly increased"},
      {"measurement": "viability of various cancer cells", "setting": "[4]", "value": "decreased the viability"},
      {"measurement": "susceptibility to 6-shogaol compared with the other cancer cells", "setting": "[5]", "value": "low"},
      {"measurement": "amount of SH groups contained in the tubulins", "setting": "[6]", "value": "approximately the same effect as 500 μM of CH3—CO—CH═CH—(CH2)5—CH3"},
      {"measurement": "influence on comigration of NBD-PZ-CO—CH═CH—(CH2)5—CH3 with tubulins", "setting": "[7]", "value": "the comigration was inhibited"}
    ]},
    {"smiles": "CCCCCCC=CC(=O)N1CCN(c2ccc([N+](=O)[O-])c3nonc23)CC1", "note": "[NBD-PZ-CO—CH═CH—(CH2)5—CH3]", "values": [
      {"measurement": "binding with tubulins (comigration)", "setting": "[7]; probe reacted with tubulins, SDS-PAGE", "value": "comigrated with the tubulins"}
    ]},
    {"smiles": "CCCCCCCC(C)=O", "note": "[CH3—CO—(CH2)6—CH3]", "values": [
      {"measurement": "reticulate distribution of tubulins (structure of microtubule)", "setting": "[8]", "value": "only CH3—CO—CH═CH—(CH2)4—CH3 inhibited a reticulate distribution of tubulins"},
      {"measurement": "polymerization of tubulins", "setting": "[9]; 500 μM compound", "value": "gave no influence"},
      {"measurement": "viable cell ratio", "setting": "[10]", "value": "only CH3—CO—CH═CH—(CH2)4—CH3 (∘) decreased the viable cell ratio"}
    ]},
    {"smiles": "CCCCCC=CC(C)=O", "note": "[CH3—CO—CH═CH—(CH2)4—CH3]", "values": [
      {"measurement": "reticulate distribution of tubulins (structure of microtubule)", "setting": "[8]", "value": "inhibited a reticulate distribution of tubulins"},
      {"measurement": "polymerization of tubulins", "setting": "[9]; 250 μM compound", "value": "inhibited polymerization of tubulins"},
      {"measurement": "polymerization of tubulins", "setting": "[9]; 500 μM compound", "value": "inhibited polymerization of tubulins"},
      {"measurement": "viable cell ratio", "setting": "[10]", "value": "decreased the viable cell ratio"}
    ]},
    {"smiles": "CCC=CCCCCC", "note": "[CH3—CH2—CH═CH—(CH2)4—CH3]", "values": [
      {"measurement": "reticulate distribution of tubulins (structure of microtubule)", "setting": "[8]", "value": "only CH3—CO—CH═CH—(CH2)4—CH3 inhibited a reticulate distribution of tubulins"},
      {"measurement": "polymerization of tubulins", "setting": "[9]; 500 μM compound", "value": "gave no influence"},
      {"measurement": "viable cell ratio", "setting": "[10]", "value": "only CH3—CO—CH═CH—(CH2)4—CH3 (∘) decreased the viable cell ratio"}
    ]},
    {"smiles": "CCCCC[C@H](O)CC(=O)CCc1ccc(O)c(OC)c1", "note": "[6-gingerol]", "values": [
      {"measurement": "influence on comigration of NBD-PZ-CO—CH═CH—(CH2)5—CH3 with tubulins", "setting": "[7]", "value": "did not give an influence on comigration"}
    ]}
  ]
}
